Experiment [1] concerns Abutilon theophrasti, Chenopodium album, Digitaria sanguinalis, Setaria viridis. Type of experiment: in vivo. The settings on record: conclusion from Table 8. As to the method:
The efficacy of the aromatic esters tri-n-hexyltrimellitate (Morflex®560) and tri-isodecylmellitate (Morflex®530) as adjuvants for nicosulfuron were tested in a glasshouse against four weed species. An agrochemical composition was prepared containing 0.2% v/v of the adjuvant in a track sprayer, and was applied at a volume of 200 liters per hectare. The adjuvant oils were emulsified using a small amount of the surfactant Pluronic® PE 10500, which was present in the composition at a concentration of 0.02% v/v. Nicosulfuron was applied at a rate of either 30 or 60 grams per hectare. The weed species and their growth stage at spraying were Abutilon theophrasti (ABUTH; growth stage 13), Chenopodium album (CHEAL; growth stage 14), Digitaria sanguinalis (DIGSA; growth stage 13), and Setaria viridis (SETVI; growth stage 13).
Each spray test was replicated three times. The efficacy of the herbicide was assessed visually and expressed as a percentage of the leaf area killed. Samples were assessed at time periods of 14 and 21 days following application. […] In this experiment Atplus®411F was added at the higher rate of 0.5% v/v. The other adjuvants were added at 0.2% v/v.

The test system of a further experiment is Septoria tritici. The experiment in a line: Septoria tritici infection of wheat plants, isopyrazam spray with/without adjuvants. It counts as in vivo, Septoria tritici (on wheat plants). The settings on record: conclusion from Table 2. As to the method:
The efficacy of the following aromatic acid esters tri-n-hexyltrimellitate (Morflex®560) and tri-isodecyl trimellitate (Morflex®530), as adjuvants in compositions comprising isopyrazam was tested and compared to the standard formulations (both EC and SC) of the fungicide, which lack this type of adjuvant.
Wheat plants were inoculated with the fungus Septoria tritici. Five days after inoculation the plants were sprayed with a diluted emulsion concentrate or suspension concentrate formulation of the fungicide isopyrazam at rates of 3, 10, 30 and 100 mg of the fungicide per litre of spray solution, using a laboratory track sprayer which delivered the spray at a rate of 200 liters per hectare. Spray tests were also carried out with diluted suspension concentrate additionally comprising each of the benzoate adjuvants described above. These adjuvants were added to the spray solution at a rate of 0.5% w/w, based on the quantity of spray liquor. The adjuvant oils were emulsified using a small amount of the surfactant Pluronic® PE 10500, which was present in the composition at a concentration of 0.02% v/v. The leaves of the plants were assessed visually 14 days after the spray application and the damage was expressed as the percentage of the leaf area infected.

Experiment [2] deals with Polygonum convolvulus, Brachiaria platyphylla, Digitaria sanguinalis, Amaranthus tuberculatus. The experiment in a line: Glasshouse weed kill, mesotrione with/without adjuvants (Example 5). It counts as in vivo. The settings on record: conclusion from Table 6. Here is the method: The efficacy of the aromatic ester tri-n-hexyltrimellitate (Morflex®560) was tested in a glasshouse against four weed species using the herbicide mesotrione. An agrochemical composition was prepared containing 0.2% v/v of the adjuvant in a track sprayer and was applied at a volume of 200 liters per hectare. The adjuvant oils were emulsified using a small amount of the surfactant Pluronic® PE 10500, which was present in the composition at a concentration of 0.02% v/v. Mesotrione was applied at either 45 or 90 grams of pesticide per hectare on weeds which had been grown to the 1.3 or 1.4 leaf stage. The weed species were Polygonum convolvulus (POLCO), Brachiaria platyphylla (BRAPL) Digitaria sanguinalis (DIGSA) and Amaranthus tuberculatus (AMATU).
Each spray test was replicated three times. The efficacy of the herbicide was assessed visually and expressed as a percentage of the leaf area killed. Samples were assessed at time periods of 7, 14 and 21 days following application. The results shown in Table 6 below are mean averages over the two rates of mesotrione, three relicates, four weed species and the three assessment timings and are compared to the efficacy of mesotrione in the absence of an adjuvant, and mesotrione in the presence of the commercially available adjuvants acetyl tributyl citrate or Tween®20 which were used at concentrations of 0.2 and 0.5% w/w respectively.

Experiment [3] relates to Chenopodium album, Abutilon theophrasti, Setaria viridis, Xanthium strumarium. The experiment in a line: Glasshouse weed kill, fomesafen with/without adjuvants (Example 4). It counts as in vivo. The settings on record: conclusion from Table 5. Here is the method: The efficacy of the aromatic acid ester Morflex ®560 (tri-n-hexyltrimellitate) as an adjuvant for the herbicide fomesafen was tested against four weed species in a glasshouse and compared to the well-know adjuvants, acetyl tributyl citrate and Turbocharge® which were added at concentrations of 0.2 and 0.5% w/w respectively. The adjuvant oils were emulsified using a small amount of the surfactant Pluronic® PE 10500, which was present in the composition at a concentration of 0.02% v/v.
An agrochemical composition was prepared containing 0.2% v/v of the adjuvant in a track sprayer and was applied at a volume of 200 liters per hectare. Fomesafen was applied at either 60 or 120 grams of pesticide per hectare on each of the weed species. The weed species and their growth stage at spraying were Chenopodium album (CHEAL; growth stage 14), Abutilon theophrasti (ABUTH; growth stage 12), Setaria viridis (SETVI; growth stage 13), and Xanthium strumarium (XANST; growth stage 12).
Each spray test was replicated three times. The efficacy of the herbicide was assessed visually and expressed as a percentage of the leaf area killed. Samples were assessed at time periods of 7, 14 and 21 days following application. […]

Experiment [4] deals with Abutilon theophrasti, Chenopodium album, Digitaria sanguinalis, Setaria viridis. The experiment in a line: Glasshouse weed kill, nicosulfuron with/without adjuvants (Example 3). It counts as in vivo. The settings on record: conclusion from Table 4. As to the method: The efficacy of the aromatic acid ester Morflex ®560 (tri-n-hexyltrimellitate) as an adjuvant for the herbicide nicosulfruon was tested against four weed species in a glasshouse and compared to the well-know adjuvants, tris-2-ethylhexyl phosphate and acetyl tributyl citrate which were tested at concentrations of 0.2% w/w. The adjuvant oils were emulsified using a small amount of the surfactant Pluronic® PE 10500, which was present in the composition at a concentration of 0.02% v/v.
An agrochemical composition was prepared containing 0.2% v/v of the adjuvant in a track sprayer, and was applied at a volume of 200 liters per hectare. Nicosulfuron was applied at a rate of either 30 or 60 grams of pesticide per hectare. The weed species and their growth stage at spraying were Abutilon theophrasti (ABUTH; growth stage 13), Chenopodium album (CHEAL; growth stage 14), Digitaria sanguinalis (DIGSA; growth stage 13), and Setaria viridis (SETVI; growth stage 13).
Each spray test replicated three times. The efficacy of the herbicide was assessed visually and expressed as a percentage of the leaf area killed. Samples were assessed at time periods of 14 and 21 days following application. […]

SMILES strings stand for the structures. Like-named read-outs stand apart in the source and are kept apart here.

With `CCCCCCOC(=O)c1ccc(C(=O)OCCCCCC)c(C(=O)OCCCCCC)c1` [Tri-n-hexyltrimellitate, Tri-n-hexyl trimellitate], the “adjuvant efficacy in words (nicosulfuron)” value is “more effective an adjuvant than methyl oleate and as effective an adjuvant as Atplus®411F” in experiment [1]; “as effective an adjuvant as either tris-2-ethylhexylphosphate or acetyl tributyl citrate” in experiment [4]. In addition, the “adjuvant efficacy in words (isopyrazam, S. tritici)” value with Septoria tritici is given as “as efficacious as the commercial tank mix adjuvant Turbocharge®”. Further, in experiment [2], the “adjuvant efficacy in words (mesotrione)” value is “as effective an adjuvant as either acetyl tributyl citrate or Tween®20”. Also, the “adjuvant efficacy in words (fomesafen)” value in experiment [3] is “as effective an adjuvant as Turbocharge® and better than acetyl tributyl citrate”.

The values above are taken from US9173397B2, “Formulation component” (Syngenta Limited, priority 2011, dated 2015).
